From the NIST ThermoML archive (doi:10.1021/je049950g)
± gives the expanded uncertainty stated by the source.

Conditions: Liquid

Row | SMILES | vapor or sublimation pressure (348.15 K) | vapor or sublimation pressure (353.15 K) | vapor or sublimation pressure (363.15 K) | vapor or sublimation pressure (368.15 K) | vapor or sublimation pressure (373.15 K) | vapor or sublimation pressure (378.15 K) | vapor or sublimation pressure (388.15 K) | vapor or sublimation pressure (393.15 K) | vapor or sublimation pressure (398.15 K) | vapor or sublimation pressure (403.15 K) | vapor or sublimation pressure (408.15 K) | vapor or sublimation pressure (413.15 K) | vapor or sublimation pressure (418.15 K) | vapor or sublimation pressure (423.15 K) | other results
1 | CC(=O)N(C)C [N,N-dimethylethanamide] | 4.135 ± 0.031 kPa | 5.192 ± 0.037 kPa | 7.995 ± 0.046 kPa | 9.806 ± 0.054 kPa | 11.98 ± 0.063 kPa | 14.52 ± 0.074 kPa | 21.01 ± 0.1 kPa | 25.03 ± 0.12 kPa | 29.69 ± 0.13 kPa | 35.02 ± 0.15 kPa | 41.11 ± 0.18 kPa | 48.06 ± 0.2 kPa | 55.91 ± 0.23 kPa | 64.78 ± 0.26 kPa | vapor or sublimation pressure (298.15 K): 0.2936 ± 0.0067 kPa; vapor or sublimation pressure (303.15 K): 0.3925 ± 0.0082 kPa; vapor or sublimation pressure (308.15 K): 0.5179 ± 0.01 kPa; vapor or sublimation pressure (313.15 K): 0.6782 ± 0.013 kPa; vapor or sublimation pressure (318.15 K): 0.8946 ± 0.016 kPa; vapor or sublimation pressure (323.15 K): 1.163 ± 0.02 kPa; vapor or sublimation pressure (328.15 K): 1.526 ± 0.021 kPa; vapor or sublimation pressure (333.15 K): 1.983 ± 0.023 kPa; vapor or sublimation pressure (338.15 K): 2.556 ± 0.025 kPa; vapor or sublimation pressure (343.15 K): 3.27 ± 0.028 kPa; vapor or sublimation pressure (383.15 K): 17.5 ± 0.086 kPa
2 | CC1COC(=O)O1 (stereo not given) [4-methyl-1,3-dioxolan-2-one] | 0.2509 ± 0.024 kPa | 0.3277 ± 0.029 kPa | 0.5553 ± 0.043 kPa | 0.7206 ± 0.053 kPa | 0.9231 ± 0.066 kPa | 1.167 ± 0.081 kPa | 1.856 ± 0.086 kPa | 2.284 ± 0.092 kPa | 2.826 ± 0.099 kPa | 3.482 ± 0.11 kPa | 4.265 ± 0.12 kPa | 5.153 ± 0.13 kPa | 6.226 ± 0.14 kPa | 7.454 ± 0.16 kPa | vapor or sublimation pressure (358.15 K): 0.4377 ± 0.035 kPa; vapor or sublimation pressure (428.15 K): 8.959 ± 0.18 kPa; vapor or sublimation pressure (433.15 K): 10.78 ± 0.21 kPa; vapor or sublimation pressure (438.15 K): 12.69 ± 0.23 kPa; vapor or sublimation pressure (443.15 K): 14.81 ± 0.26 kPa; vapor or sublimation pressure (448.15 K): 17.81 ± 0.3 kPa; vapor or sublimation pressure (453.15 K): 20.5 ± 0.34 kPa; vapor or sublimation pressure (458.15 K): 24.08 ± 0.39 kPa; vapor or sublimation pressure (463.15 K): 27.96 ± 0.44 kPa; vapor or sublimation pressure (468.15 K): 33.01 ± 0.51 kPa; vapor or sublimation pressure (473.15 K): 37.77 ± 0.56 kPa
